Tested on: HCV Replicon IB
Experiment: HCV replicon assay in Huh-7 cells, genotype 1b (Rluc luciferase readout)
Format: cell-based, hepatitis C virus
Conditions: Hepatitis C virus, 72 h; 10 uM; 1b-Rluc replicon, Huh-7 cells, 3 days; read-out: Inhibition @ 10 uM in 1b-Rluc

| SMILES | inhibition at 10 µM |
| --- | --- |
| Cc1cc(C(=O)NCC2COCC(C)(C)N2)nc2c(C(F)(F)F)cc(C3CC3)cc12 (centres unmarked) [Compound 133] | 92.4% |
| Cc1cc(C(=O)NC2CNC(C)(C)COC2)nc2c(C(F)(F)F)cc(C3CC3)cc12 (centres unmarked) [Compound 134] | 93.1% |
| Cc1cc(C(=O)NCc2ccccn2)nc2c(C(F)(F)F)cc(C3(C)CC3)cc12 [Compound 138] | 99% |
| CC(C)=Cc1cc(C(F)(F)F)c2nc(C(=O)NCc3ccccn3)cc(C)c2c1 [Compound 139] | 99.7% |
| Cc1cc(C(=O)NCc2ccccn2)nc2c(C(F)(F)F)cc(CC(C)C)cc12 [Compound 140] | 99.1% |
| Cc1cc(C(=O)NCc2ccccn2)nc2c(C(F)(F)F)cc(C3OC3(C)C)cc12 (centres unmarked) [Compound 141] | 94.8% |
| Cc1cc(C(=O)NCc2ccccn2)nc2c(C(F)(F)F)cc(C3CC3(C)C)cc12 (centres unmarked) [Compound 142] | 99.4% |
| Cc1cc(C(F)(F)F)c2nc(C(=O)NCc3ccccn3)cc(C)c2c1 [Compound 143] | 93.7% |
| Cc1cc(C(=O)NCc2ccccn2)nc2c(C(F)(F)F)cc(C#N)cc12 [Compound 144] | 57.9% |
| Cc1cc(C(=O)NCc2ccccn2)nc2c(C(F)(F)F)cc(C#CC(C)(C)C)cc12 [Compound 145] | 72% |
| C#Cc1cc(C(F)(F)F)c2nc(C(=O)NCc3ccccn3)cc(C)c2c1 [Compound 146] | 99.4% |
| Cc1cc(C(=O)NCc2ccccn2)nc2c(C(F)(F)F)cc(C#CC3CC3)cc12 [Compound 147] | 94.1% |
| CC#Cc1cc(C(F)(F)F)c2nc(C(=O)NCc3ccccn3)cc(C)c2c1 [Compound 148] | 99.5% |
| Cc1cc(C(=O)NCc2ccccn2)nc2c(C(F)(F)F)cc(C3=CCCC3)cc12 [Compound 149] | 99.4% |
| Cc1cc(C(=O)NCc2ccccn2)nc2c(C(F)(F)F)cc(C3CCCC3)cc12 [Compound 150] | 99% |
| Cc1cc(C(=O)NCC2CCCCN2)nc2c(C(F)(F)F)cc(C3CCCC3)cc12 (centres unmarked) [Compound 151] | 99.6% |
| Cc1cc(C(=O)NCc2ccccn2)nc2c(C(F)(F)F)cc(C3CC3(F)F)cc12 (centres unmarked) [Compound 154] | 100% |
| Cc1cc(C(=O)NC[C@@H]2COCCN2)nc2c(C(F)(F)F)cc(C3CC3(F)F)cc12 (some centres unmarked) [Compound 155] | 99.7% |
| C=C(C)c1cc(C(F)(F)F)c2nc(C(=O)NCc3ccccn3)cc(C)c2c1 [Compound 156] | 99.6% |
| Cc1cc(C(=O)NCc2ccccn2)nc2c(C(F)(F)F)cc(C(C)C)cc12 [Compound 157] | 98.8% |
| CCc1cc(C(F)(F)F)c2nc(C(=O)NCc3ccccn3)cc(C)c2c1 [Compound 158] | 98.9% |
| CC(=O)c1cc(C(F)(F)F)c2nc(C(=O)NCc3ccccn3)cc(C)c2c1 [Compound 160] | 93.5% |
| Cc1cc(C(=O)NCc2ccccn2)nc2c(C(F)(F)F)cc(C(C)(C)O)cc12 [Compound 161] | 76.7% |
| Cc1cc(C(=O)NCC(C)(C)C#N)nc2c(C(F)(F)F)cc(-c3ccccc3)cc12 [Compound 162] | 80.5% |
| Cc1cc(C(=O)NCC2(O)CC2)nc2c(C(F)(F)F)cc(-c3ccccc3)cc12 [Compound 163] | 98.3% |
| Cc1cc(C(=O)NCCCO)nc2c(C(F)(F)F)cc(-c3ccccc3)cc12 [Compound 164] | 94.6% |

| SMILES | inhibition at 10 µM |
| --- | --- |
| CCC(O)CNC(=O)c1cc(C)c2cc(-c3ccccc3)cc(C(F)(F)F)c2n1 (centres unmarked) [Compound 165] | 96.5% |
| Cc1cc(C(=O)NCCO)nc2c(C(F)(F)F)cc(-c3ccccc3)cc12 [Compound 166] | 93.8% |
| Cc1cc(C(=O)NC(CO)c2ccccc2)nc2c(C(F)(F)F)cc(-c3ccccc3)cc12 (centres unmarked) [Compound 167] | 87.5% |
| Cc1cc(C(=O)NCC(O)c2ccccc2)nc2c(C(F)(F)F)cc(-c3ccccc3)cc12 (centres unmarked) [Compound 168] | 86.4% |
| Cc1cc(C(=O)NCC(O)Cc2ccccc2)nc2c(C(F)(F)F)cc(-c3ccccc3)cc12 (centres unmarked) [Compound 169] | 93% |
| Cc1cc(C(=O)NC/C=C/c2ccccc2)nc2c(C(F)(F)F)cc(-c3ccccc3)cc12 [Compound 170] | 66.4% |
| Cc1cc(C(=O)N/C=C/Cc2ccccc2)nc2c(C(F)(F)F)cc(-c3ccccc3)cc12 [Compound 171] | 92.5% |
| Cc1cc(C(=O)NCC2CCCCC2)nc2c(C(F)(F)F)cc(-c3ccccc3)cc12 [Compound 172] | 95.2% |
| O=C(NCc1ccccn1)c1cnc2cc(-c3ccccc3)cc(C(F)(F)F)c2n1 [Compound 173] | 86.3% |
| C=Cc1cc(C(=O)NCc2cccs2)nc2c(C(F)(F)F)cc(-c3ccccc3)cc12 [Compound 174] | 63.6% |
| N#Cc1cc(-c2nnc(Nc3ccccc3)o2)nc2c(C(F)(F)F)cc(-c3ccccc3)cc12 [Compound 175] | 89.3% |
| CCCCN(C)c1cc(C(F)(F)F)c2nc(C(=O)NCc3ccccn3)cc(C)c2c1 [Compound 176] | 80.4% |
| CC(=O)Nc1cc(C(F)(F)F)c2nc(C(=O)NCc3ccccn3)cc(C)c2c1 [Compound 177] | 94.7% |
| Cc1cc(C(=O)NCc2ccccn2)nc2c(C(F)(F)F)cc(N)cc12 [Compound 178] | 86.9% |
| Cc1cc(C(=O)NCc2ccccn2)nc2c(C(F)(F)F)cc(N(C)S(C)(=O)=O)cc12 [Compound 179] | 98.9% |
| CC(=O)N(C)c1cc(C(F)(F)F)c2nc(C(=O)NCc3ccccn3)cc(C)c2c1 [Compound 180] | 65.5% |
| CNc1cc(C(F)(F)F)c2nc(C(=O)NCc3ccccn3)cc(C)c2c1 [Compound 181] | 99.4% |
| COc1cc(C(F)(F)F)c2nc(C(=O)NCc3ccccn3)cc(C)c2c1 [Compound 182] | 99.3% |
| CCCCOc1cc(C(F)(F)F)c2nc(C(=O)NCc3ccccn3)cc(C)c2c1 [Compound 183] | 88.8% |
| Cc1cc(C(=O)NCc2ccccn2)nc2c(C(F)(F)F)cc(OC3CCCC3)cc12 [Compound 184] | 96% |
| Cc1cc(C(=O)NCc2ccccn2)nc2c(C(F)(F)F)cc(OC(F)F)cc12 [Compound 187] | 99.9% |
| Cc1cc(C(=O)NCc2ccccn2)nc2c(C(F)(F)F)cc(OCC(F)(F)F)cc12 [Compound 189] | 99.8% |
| Cc1cc(C(=O)NC[C@H]2CC(F)(F)CN2)nc2c(C(F)(F)F)cc(OC(F)F)cc12 [Compound 190] | 94.7% |
| Cc1cc(C(=O)NC[C@@H]2CC(O)CN2)nc2c(C(F)(F)F)cc(OC(F)F)cc12 (some centres unmarked) [Compound 191] | 50.2% |
| O=C(NCc1ccccn1)c1cc(Cl)c2cc(OC(F)F)cc(C(F)(F)F)c2n1 [Compound 194] | 99.5% |
| Nc1cc(C(=O)NCc2cccc(F)n2)nc2c(C(F)(F)F)cc(OC(F)F)cc12 [Compound 195] | 99.7% |

| SMILES | inhibition at 10 µM |
| --- | --- |
| O=C(NCC1C[S+]([O-])CCN1)c1cc(Cl)c2cc(OC(F)F)cc(C(F)(F)F)c2n1 (centres unmarked) [Compound 196] | 55% |
| O=C(NCC1CS(=O)(=O)CCN1)c1cc(Cl)c2cc(OC(F)F)cc(C(F)(F)F)c2n1 (centres unmarked) [Compound 197] | 92.8% |
| Nc1cc(C(=O)NCC2CS(=O)(=O)CCN2)nc2c(C(F)(F)F)cc(OC(F)F)cc12 (centres unmarked) [Compound 198] | 98.4% |
| CCC(O)CNC(=O)c1cc(Cl)c2cc(OC(F)F)cc(C(F)(F)F)c2n1 (centres unmarked) [Compound 204] | 95.5% |
| CCC(=O)CNC(=O)c1cc(Cl)c2cc(OC(F)F)cc(C(F)(F)F)c2n1 [Compound 205] | 99.2% |
| CCC(CNC(=O)c1cc(Cl)c2cc(OC(F)F)cc(C(F)(F)F)c2n1)=NOC [Compound 206] | 64% |
| O=C(NCc1ccccn1)c1cc(Cl)c2cc(C3CC3)cc(C(F)(F)F)c2n1 [Compound 210] | 99.9% |
| O=C(NCC1(O)CC1)c1cc(Cl)c2cc(C3CC3)cc(C(F)(F)F)c2n1 [Compound 211] | 94.8% |
| O=C(NCC1COCCN1)c1cc(C(F)F)c2cc(C3CC3)cc(C(F)(F)F)c2n1 (centres unmarked) [Compound 213] | 88.7% |
| O=C(NCc1ccccn1)c1cc(C2CC2)c2cc(C3CC3)cc(C(F)(F)F)c2n1 [Compound 214] | 92.6% |
| N#Cc1cc(C(=O)NCc2ccccn2)nc2c(C(F)(F)F)cc(C3CC3)cc12 [Compound 215] | 99.4% |
| CNc1cc(C(=O)NCc2ccccn2)nc2c(C(F)(F)F)cc(C3CC3)cc12 [Compound 216] | 98.2% |
| O=C(NCC1COCCN1)c1cc(O)c2cc(C3CC3)cc(C(F)(F)F)c2n1 (centres unmarked) [Compound 217] | 77% |
| Nc1cc(C(=O)NCC2COCCN2)nc2c(C(F)(F)F)cc(C3CC3)cc12 (centres unmarked) [Compound 218] | 99.9% |
| CCC(=O)CNC(=O)c1cc(N)c2cc(C3CC3)cc(C(F)(F)F)c2n1 [Compound 220] | 100% |
| Nc1cc(C(=O)NCC2(O)CC2)nc2c(C(F)(F)F)cc(C3CC3)cc12 [Compound 221] | 98.8% |
| CS(=O)(=O)Nc1nc(C(=O)NCc2cccs2)nc2c(C(F)(F)F)cc(-c3ccccc3)cc12 [Compound 222] | 95.1% |
| Cc1cc(C(=O)NCc2ccccn2)nc2c(C(C)(C)C)cc(C3CC3)cc12 [Compound 226] | 100% |
| CC(C)(C)c1cc(C2CC2)cc2c(O)cc(C(=O)NCc3ccccn3)nc12 [Compound 227] | 100% |
| CC(C)(C)c1cc(C2CC2)cc2c(Cl)cc(C(=O)NCC3COCCN3)nc12 (centres unmarked) [Compound 228] | 94.7% |
| CC(C)(C)c1cc(C2CC2)cc2c(Cl)cc(C(=O)NCc3ccccn3)nc12 [Compound 229] | 100% |
| CC(C)(C)c1cc(C2CC2)cc2c(N)cc(C(=O)NCc3ccccn3)nc12 [Compound 230] | 100% |
| O=C(NCc1ccccn1)c1cc(Cl)c2cc(C3CC3)cc(OC(F)(F)F)c2n1 [Compound 233] | 100% |
| Cc1cc(C(=O)NCc2ccccn2)nc2c(OC(F)(F)F)cc(C3CC3)cc12 [Compound 234] | 100% |

Same assay, conditions: Hepatitis C virus, Huh-7, 72 h; read-out: Inhibition @ 10 uM in 1b-Rluc

| SMILES | inhibition at 10 µM |
| --- | --- |
| C=Cc1cc(C(F)(F)F)c2nc(C(=O)NCc3ccccn3)cc(C)c2c1 [Compound 152] | 99.9% |
